Measurements taken from paper PMC9611727, “Optimization of a Novel Mandelamide-Derived Pyrrolopyrimidine Series of PERK Inhibitors” (Pharmaceutics, 2022).

How the values were obtained:
Assay in all cases: scanMAX kinase panel
Format in all cases: binding
Conditions in all cases: read-out: % Control; for remaining binding at 1 µM: 1000 nM
[1] = biological target: T1, FLT3(D835Y) (Homo sapiens, UniProt P36888, D835Y)
T1 construct: purchased DiscoverX scanMAX
T1 sequence (P36888 27-993 D835Y): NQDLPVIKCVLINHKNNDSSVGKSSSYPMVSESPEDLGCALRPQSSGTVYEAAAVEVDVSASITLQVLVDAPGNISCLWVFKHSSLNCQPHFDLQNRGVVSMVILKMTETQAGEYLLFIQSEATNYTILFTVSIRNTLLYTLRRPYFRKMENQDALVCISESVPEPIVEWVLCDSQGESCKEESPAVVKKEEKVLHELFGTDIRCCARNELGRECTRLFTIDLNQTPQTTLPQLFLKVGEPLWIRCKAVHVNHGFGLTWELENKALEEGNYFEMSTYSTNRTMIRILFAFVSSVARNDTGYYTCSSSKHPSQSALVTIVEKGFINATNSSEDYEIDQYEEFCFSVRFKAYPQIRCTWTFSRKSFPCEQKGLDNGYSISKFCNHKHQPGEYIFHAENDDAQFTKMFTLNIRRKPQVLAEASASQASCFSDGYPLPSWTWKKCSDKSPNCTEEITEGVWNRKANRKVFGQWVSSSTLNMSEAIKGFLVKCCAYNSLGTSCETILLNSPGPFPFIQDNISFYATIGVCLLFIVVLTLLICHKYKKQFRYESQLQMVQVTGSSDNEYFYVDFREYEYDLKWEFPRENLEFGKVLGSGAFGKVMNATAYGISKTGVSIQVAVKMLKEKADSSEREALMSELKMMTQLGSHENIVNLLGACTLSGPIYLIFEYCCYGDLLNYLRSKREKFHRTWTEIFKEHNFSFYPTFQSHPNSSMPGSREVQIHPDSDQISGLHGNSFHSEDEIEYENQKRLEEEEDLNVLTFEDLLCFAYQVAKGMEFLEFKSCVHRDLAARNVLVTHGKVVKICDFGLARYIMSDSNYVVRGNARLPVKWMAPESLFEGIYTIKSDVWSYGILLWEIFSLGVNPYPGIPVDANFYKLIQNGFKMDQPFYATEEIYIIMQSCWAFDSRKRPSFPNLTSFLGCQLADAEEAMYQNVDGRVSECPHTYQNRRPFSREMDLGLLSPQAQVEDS
Excerpt: (§1) Supplemental Table S2. scanMAXSM Kinome Assay Results. Complete tabulated data of all 468 kinases from the panel, including
(§2) 403 wild-type and 65 mutant isoforms. […] Cmpd 11 and Cmpd 24

[2] = biological target: T2, FLT3-autoinhibited (Homo sapiens, UniProt P36888)
T2 construct: purchased DiscoverX scanMAX
T2 sequence (P36888 564-993 limits assumed): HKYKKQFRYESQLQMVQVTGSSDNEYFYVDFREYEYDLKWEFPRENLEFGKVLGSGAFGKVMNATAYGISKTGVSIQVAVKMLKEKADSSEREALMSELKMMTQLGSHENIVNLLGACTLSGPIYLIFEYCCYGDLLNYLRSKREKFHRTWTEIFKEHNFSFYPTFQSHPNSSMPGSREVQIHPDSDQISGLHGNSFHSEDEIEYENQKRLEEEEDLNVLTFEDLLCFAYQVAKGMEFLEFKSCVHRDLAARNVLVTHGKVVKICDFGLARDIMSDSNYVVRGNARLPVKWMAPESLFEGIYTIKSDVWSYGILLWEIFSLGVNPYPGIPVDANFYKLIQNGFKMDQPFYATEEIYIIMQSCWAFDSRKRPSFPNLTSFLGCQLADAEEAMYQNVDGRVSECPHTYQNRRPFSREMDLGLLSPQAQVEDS
Excerpt: as §1, §2

[3] = biological target: T3, RIPK5 (Homo sapiens, UniProt Q6XUX3)
T3 construct: purchased DiscoverX (scanMAX panel)
T3 sequence (Q6XUX3 1-929): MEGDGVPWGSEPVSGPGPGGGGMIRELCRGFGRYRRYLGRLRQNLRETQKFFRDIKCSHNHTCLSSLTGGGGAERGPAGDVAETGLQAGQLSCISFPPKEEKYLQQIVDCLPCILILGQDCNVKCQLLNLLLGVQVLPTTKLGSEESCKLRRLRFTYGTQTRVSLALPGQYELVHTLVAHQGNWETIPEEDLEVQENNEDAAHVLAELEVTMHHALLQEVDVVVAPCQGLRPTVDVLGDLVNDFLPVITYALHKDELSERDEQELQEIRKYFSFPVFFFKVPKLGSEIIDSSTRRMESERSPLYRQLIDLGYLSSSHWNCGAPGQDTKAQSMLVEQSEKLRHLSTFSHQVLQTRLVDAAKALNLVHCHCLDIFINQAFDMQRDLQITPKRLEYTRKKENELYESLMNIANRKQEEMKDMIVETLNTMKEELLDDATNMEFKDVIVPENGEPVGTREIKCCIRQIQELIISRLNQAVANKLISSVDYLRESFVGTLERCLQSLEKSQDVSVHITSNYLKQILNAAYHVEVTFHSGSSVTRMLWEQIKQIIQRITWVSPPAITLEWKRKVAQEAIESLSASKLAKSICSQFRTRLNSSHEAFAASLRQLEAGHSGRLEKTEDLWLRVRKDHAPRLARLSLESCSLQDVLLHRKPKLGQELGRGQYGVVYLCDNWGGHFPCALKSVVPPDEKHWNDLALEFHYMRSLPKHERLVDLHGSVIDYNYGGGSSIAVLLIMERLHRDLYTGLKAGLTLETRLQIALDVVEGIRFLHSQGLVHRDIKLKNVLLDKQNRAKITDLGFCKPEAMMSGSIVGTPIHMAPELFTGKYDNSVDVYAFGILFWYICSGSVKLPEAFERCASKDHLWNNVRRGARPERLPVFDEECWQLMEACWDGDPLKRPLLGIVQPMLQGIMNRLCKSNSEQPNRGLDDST
Excerpt: as §1, §2

SMILES | remaining binding at 1 µM [1] [%] | remaining binding at 1 µM [2] [%] | remaining binding at 1 µM [3] [%] | remaining binding at 0.1 µM ([1]; 100 nM) [%] | remaining binding at 0.1 µM ([2]; 100 nM) [%] | remaining binding at 0.1 µM ([3]; 100 nM) [%]
Cc1cc(NC(=O)[C@H](O)c2cccc(F)c2)ccc1-c1cn(C)c2ncnc(N)c12 [Compound 11, (R)-N-(4-(4-amino-7-methyl-7H-pyrrolo[2,3-d]pyrimidin-5-yl)-3-methylphenyl)-2-(3-fluorophenyl)-2-hydroxy acetamide] | 80 | 57 | 3.4 | – | – | –
Cc1nc(N)c2c(-c3ccc(NC(=O)[C@H](O)c4cccc(F)c4)cc3C)cn(C)c2n1 [Compound 24] | 96 | 100 | 100 | – | – | –
Cc1nc(N)c2c(-c3ccc(NC(=O)[C@H](O)c4cccc(C(F)(F)F)c4)cc3C)cn(C)c2n1 [Compound 26] | 35 | 65 | 100 | 88 | 100 | 100
